Consider 3 molecules from publication PMC3378808 (Biochimica et Biophysica Acta, 2012).

In data set [1] the target is LMP-1 TMD-5 (Epstein-Barr virus, UniProt P03230). It is filed as cell-based.
For data set [2], the system named is TMD of diacylglycerol kinase (DAGK). It is filed as cell-based. Particulars: ToxR assay, Figure 3c.
Data set [3] addresses T1, TMD of integrin αIIb (Homo sapiens, UniProt P08514).
T1 sequence (P08514 994-1019 limits assumed): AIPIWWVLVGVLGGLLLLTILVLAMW
Put plainly: ToxR reporter assay of integrin αIIb TMD oligomerization. It is filed as cell-based. Particulars: Figure 3c.

For data set [4], the target named is coumarin labeled TMD-5 peptide (LMP-1) (Epstein-Barr virus, UniProt P03230). Kind of data set: Coumarin fluorescence dequenching assay. It is filed as binding.
The subject of data set [5] is NO production (NF-κB downstream signaling). Kind of data set: Nitric oxide. Particulars: 100 μM, EBV positive B 721 cells, 48 h. It is filed as cell-based, human.
Data set [6] concerns the target 12 representative kinases (AKT1, CAMK1, DDR2, GSK-3α, MAPK1, MET, PAK1, PDGFRB, PIM1, PKC-γ, PLK4, SRC). Put plainly: Kinase profiling. It is filed as biochemical. Particulars: 50 μM compound.
Data set [7] concerns the target CAMK1 (Homo sapiens, UniProt Q14012). Kind of data set: Kinase profiling. Particulars: 50 μM compound. It is filed as biochemical.
Data set [8] concerns the target PDGFRB (Homo sapiens, UniProt P09619). Kind of data set: Kinase profiling. Particulars: 50 μM compound. It is filed as biochemical.
Data set [9] concerns the target TMD-5 trimer (Epstein-Barr virus, UniProt P03230). Kind of data set: Bis-Tris SDS-PAGE of TMD-5 after NMR titration. It is filed as binding. The note with it: compound to TMD-5 ratio 4:1.
Data set [10] concerns the target TMD-5 peptide (Epstein-Barr virus, UniProt P03230). Kind of data set: NMR titration. It is filed as binding. The note with it: 500 MHz, POPC/DHPC bicelles, 37 °C.
For data set [11], the target named is split luciferase (Photinus pyralis, UniProt P08659). Put plainly: Split luciferase false-positive control. It is filed as biochemical. The note with it: false positive evaluation.
Sequence of split luciferase (P08659 2-416 limits assumed): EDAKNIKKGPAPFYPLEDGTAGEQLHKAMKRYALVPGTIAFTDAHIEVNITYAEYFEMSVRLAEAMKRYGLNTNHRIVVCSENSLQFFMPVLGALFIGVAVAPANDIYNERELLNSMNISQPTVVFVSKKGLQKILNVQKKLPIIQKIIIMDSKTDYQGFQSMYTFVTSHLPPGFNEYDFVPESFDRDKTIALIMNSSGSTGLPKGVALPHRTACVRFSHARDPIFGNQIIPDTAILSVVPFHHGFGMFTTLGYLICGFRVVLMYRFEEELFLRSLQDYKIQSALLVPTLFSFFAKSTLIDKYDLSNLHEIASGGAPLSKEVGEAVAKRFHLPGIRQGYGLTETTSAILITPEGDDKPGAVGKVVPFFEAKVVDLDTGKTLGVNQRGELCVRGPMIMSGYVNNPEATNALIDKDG
Data set [12] relates to B lymphoblastoid cell line 721. The note with it: 100 μM, B 721 cells, 48 h, WST-1.
Data set [13] concerns full-length LMP-1-mediated NF-κB activity. Kind of data set: NF-κB luciferase reporter assay in EBV positive B 721 cells. It is filed as cell-based. Particulars: Homo sapiens, B721, 48 h, read-out: IC50 of NF-κB activation.
Data set [14] concerns the molecule itself. Kind of data set: Bis-Tris SDS-PAGE.

Sequence of PDGFRB (P09619 33-1106, species assumed): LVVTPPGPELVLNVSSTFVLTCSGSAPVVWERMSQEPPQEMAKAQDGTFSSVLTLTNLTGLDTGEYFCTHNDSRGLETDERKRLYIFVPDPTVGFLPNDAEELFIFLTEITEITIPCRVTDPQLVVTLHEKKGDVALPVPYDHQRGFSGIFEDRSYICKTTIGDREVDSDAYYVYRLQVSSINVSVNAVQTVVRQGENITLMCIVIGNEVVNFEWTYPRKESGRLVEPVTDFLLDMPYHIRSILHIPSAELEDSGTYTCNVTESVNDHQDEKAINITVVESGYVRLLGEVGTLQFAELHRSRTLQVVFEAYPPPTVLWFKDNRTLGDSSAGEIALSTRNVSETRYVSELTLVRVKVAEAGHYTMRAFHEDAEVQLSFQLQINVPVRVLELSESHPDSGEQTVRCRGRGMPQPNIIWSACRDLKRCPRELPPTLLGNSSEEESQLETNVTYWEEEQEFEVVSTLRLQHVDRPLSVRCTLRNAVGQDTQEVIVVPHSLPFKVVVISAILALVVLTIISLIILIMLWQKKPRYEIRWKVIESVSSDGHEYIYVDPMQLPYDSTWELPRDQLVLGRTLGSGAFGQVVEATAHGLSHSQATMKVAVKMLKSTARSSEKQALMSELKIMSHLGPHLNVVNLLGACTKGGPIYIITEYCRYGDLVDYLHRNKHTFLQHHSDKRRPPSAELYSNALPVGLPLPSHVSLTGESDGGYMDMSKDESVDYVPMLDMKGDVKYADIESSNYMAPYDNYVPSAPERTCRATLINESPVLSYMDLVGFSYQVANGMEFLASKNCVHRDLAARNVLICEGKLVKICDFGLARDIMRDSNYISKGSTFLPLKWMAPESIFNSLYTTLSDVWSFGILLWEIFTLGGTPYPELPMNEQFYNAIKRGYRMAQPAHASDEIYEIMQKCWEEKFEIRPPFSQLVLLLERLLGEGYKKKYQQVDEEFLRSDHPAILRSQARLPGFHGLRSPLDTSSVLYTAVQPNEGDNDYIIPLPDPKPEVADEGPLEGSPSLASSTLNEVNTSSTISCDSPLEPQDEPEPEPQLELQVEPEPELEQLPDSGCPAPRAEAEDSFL
Sequence of CAMK1 (Q14012 whole entry, species assumed): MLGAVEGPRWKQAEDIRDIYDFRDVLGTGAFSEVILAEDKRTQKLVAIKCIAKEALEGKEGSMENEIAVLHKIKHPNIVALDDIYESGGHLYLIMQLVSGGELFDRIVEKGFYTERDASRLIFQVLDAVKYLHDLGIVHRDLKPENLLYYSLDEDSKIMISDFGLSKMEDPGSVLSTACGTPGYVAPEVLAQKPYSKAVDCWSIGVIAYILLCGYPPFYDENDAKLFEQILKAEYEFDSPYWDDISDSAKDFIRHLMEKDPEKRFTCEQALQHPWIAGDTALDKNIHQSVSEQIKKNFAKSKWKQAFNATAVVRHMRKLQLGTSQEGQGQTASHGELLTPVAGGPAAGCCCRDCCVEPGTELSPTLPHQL

In the case of `N=C(N)c1ccc(C=Cc2ccc(C(=N)N)cc2O)cc1.O=S(=O)(O)CCO.O=S(=O)(O)CCO` [Compound 1], in data set [1] (read-out: IC50 to disrupt TMD-5 oligomerization in whole cells, ToxR assay, dose-dependent titration), the IC50 turned out to be 90 ± 10.5 µM. The “inhibition of DAGK TMD oligomerization” value in [2] is “did not inhibit DAGK TMD oligomerization”. Besides, in data set [3], the “inhibition of integrin αIIb TMD oligomerization” value is “No apparent oligomerization inhibition”. Further, the “coumarin labeled TMD-5 fluorescence increase without detergent” value in data set [4] (in the absence of C14 betaine detergent) is recorded as “failed to cause coumarin labeled TMD-5 fluorescence increase”. The “effect on NO over-production” value in data set [5] is on record as “suppress NO over-production”. In [6], the “kinase activity retained (ten out of twelve kinases)” value is above 95%. In addition, the “inhibition of CAMK1” value in [7] is “approximately 20%”. For the same molecule, the “inhibition of PDGFRB” value in [8] is on record as “approximately 20%”. Further, in data set [9], the “disruption of TMD-5 trimer to monomer on SDS-PAGE” value is on record as “disrupts the TMD-5 trimer”. The “chemical shift changes of TMD-5 on titration” value in data set [10] is “induced chemical shift changes at a number of sites including the deeply buried Asp 150”. Also, the “inhibition of luciferase control” value in [11] is “did not inhibit luciferase control”. The “cytotoxicity / growth inhibition” value in data set [12] was “No apparent growth inhibition”.

For `C(=Cc1ccc(-c2nc(-c3ccccc3)nc(-c3ccccc3)n2)cc1)c1ccc(-c2nc(-c3ccccc3)nc(-c3ccccc3)n2)cc1` [Compound 6, 2,2'-(1,2-ethenediyldi-4,1-phenylene)bis(4,6-diphenyl-1,3,5-triazine), reference compound], the “inhibition of TMD-5 oligomerization (ToxR assay), in words” value in data set [1] (Figure 3e/3f) is reported as “did not inhibit TMD-5 oligomerization”. Also, the “disruption of TMD-5 association (coumarin fluorescence dequenching), in words” value in data set [4] (100 nM coumarin-labeled TMD-5, 150 μM C14 betaine, pH 7.4) is “did not inhibit TMD-5 oligomerization”. Moreover, the IC50 in [13] was determined as 180 ± 27.5 µM. For the same molecule, the “effect on NO over-production” value in [5] was “no significant inhibition activity”.

Regarding GGPGWQLLAFFLAFFLDLILLIIALYLGPGG [TMD-5 peptide (GGPG-WQLLAFFLAFFLDLILLIIALYL-GPGG) derived from LMP-1], the “stoichiometry N” value in data set [14] came to 3.
